≈ marks a conversion by molar mass, not a printed value. Where two headings read alike, the source gives them in different places.
Key:
[1] = Lung/plasma distribution of norketotifen in rats; assay type: in vivo, SPD rats; settings: for Kp: male, SPD, rat, lung/plasma, 20 mg/kg/day; for Lung Concentration / Plasma Concentration: rats
Method: Groups of male SPD rats (200-230 g) were administered racemic norketotifen hydrogen Fumarate 20 mg/kg/day (=14.4 mg/kg/day of the free base) for 10 consecutive days. Lung and plasma samples were collected and prepared and the concentrations of RS-norketotifen were determined using a qualified LC-MS-MS analytical method. LLQ (Lowest Level of Quantification) was <0.5 ng/ml.

IL-4 = assay: PHA-induced release of IL-4 from human buffy coats; assay type: cell-based; settings: PHA 5 μg/ml, 16 hours, inhibition
Method: (§1) The study was conducted in two phases. The first phase included optimization of the test methodology and included also dose-range finding studies, using buffy coats from 3 human donors, stimulated with phytohemagglutinin (PHA). The concentrations of the test article and the duration of exposure were optimized to obtain acceptable dose-response ratios. Following optimization of the test conditions, a final protocol was issued. In the Main Study, buffy coats from 5 healthy human male donors were stimulated with PHA, 5 μg/ml.
(§2) The inhibitory effects of three concentrations of NK and one concentration of ketotifen were evaluated in the Main Study. The buffy coats were resuspended in assay media and were pre-incubated for 30 min with either vehicle/saline, ketotifen (10 μM) or norketotifen (1.0; 10 or 100 μM). Following these preincubations, the white blood cell suspensions were stimulated for 16 hours with PHA, 5 μg/ml. The cell system supernatants were then harvested and stored frozen.

[2] = test system: Methicillin-resistant S. aureus; assay: Antimicrobial activity (MIC), MRSA; assay type: cell-based; settings: Staphylococcus aureus; Bacteria: MRSA; MIC refers to lethal concentrations
sedation [3] = settings: orally administered, dogs; U.S. Pat. No. 8,557,846; cited from earlier work
IL-13 = assay: PHA-induced release of IL-13 from human buffy coats; assay type: cell-based; settings: PHA 5 μg/ml, 16 hours, inhibition
Method: as §1, §2

Aspergillus fumigatus = assay: Antimicrobial activity (MIC), Aspergillus fumigatus; assay type: cell-based; settings: Fungi: Af, MIC refers to lethal concentrations
Streptococcus pneumoniae = assay: Antimicrobial activity (MIC), Streptococcus pneumoniae; assay type: cell-based; settings: Bacteria: Sp, MIC refers to lethal concentrations
TNF-α = assay: PHA-induced release of TNF-α from human buffy coats; assay type: cell-based; settings: PHA 5 μg/ml, 16 hours, inhibition
Method: as §1, §2

Trichophyton rubrum = assay: Antimicrobial activity (MIC), Trichophyton rubrum; assay type: cell-based; settings: Mold: Tr, MIC refers to lethal concentrations
[4] = test system: Staphylococcus intermedius; assay: Antimicrobial activity (MIC), Staphylococcus intermedius; assay type: cell-based; settings: Bacteria: Si, MIC refers to lethal concentrations
[5] = test system: croton oil-induced ear swelling; assay: Croton oil-induced ear swelling; assay type: in vivo, CD-1 female mice; design: Average ear thickness: unit not given beside the values; settings: for Average ear thickness: single oral dose 10 mg/kg 60 min before
Method: The effects of NK, PRED and the vehicle (5% PEG in water) were tested orally in CD-1 female mice. Under the test protocol, 20 μl of 1.0% croton oil in acetone was applied topically to both ears of three groups of mice, each group consisting of 6 mice. No attempt was made to remove the croton oil solution since the solvent evaporated within 30 seconds. The oral doses of NK and PRED were 10 mg/kg (10 ml/kg) bodyweight for both compounds and were administered 60 min before the croton oil applications. Vehicle-treated mice were dosed 10 ml/kg of water, containing 5% polyethylene glycol (PEG), which was also the solvent for the test articles. Ear thickness was measured with an electronic caliper and mean ear thickness (N=12; right+left ears) were calculated and compared with the thickness of ears from vehicle-treated mice (Student's t-test).

IL-10 = assay: PHA-induced release of IL-10 from human buffy coats; assay type: cell-based; settings: PHA 5 μg/ml, 16 hours, inhibition
Method: as §1, §2

IL-8 = assay: PHA-induced release of IL-8 from human buffy coats; assay type: cell-based; settings: PHA 5 μg/ml, 16 hours, inhibition
Method: as §1, §2

[6] = Plasma concentration after sc infusion (follow-up study); assay type: in vivo; settings: Sprague-Dawley, rat, 1 mg/kg/day, after sc infusion of RS-norketotifen for 5 days, rats
Water solubility = assay type: physicochemical
sedation [7] = settings: art-accepted mouse model of sedation; U.S. Pat. Nos. 7,226,934 and 7,557,128; cited from earlier work
Staphylococcus aureus = assay: Antimicrobial activity (MIC), Staphylococcus aureus; assay type: cell-based; settings: Bacteria: Sa, MIC refers to lethal concentrations
[8] = Dose Day 4, once daily oral 14.4 mg/kg free base
[9] = Dose Day 7, once daily oral 14.4 mg/kg free base
[10] = Last dose + 24 hrs, once daily oral 14.4 mg/kg free base for 10 days
[11] = Last dose, Day 10, once daily oral 14.4 mg/kg free base

O=C1Cc2ccccc2C(=C2CCNCC2)c2ccsc21 (racemic) [norketotifen]
Kp ([1]; oral, Dose Day 4, read-out: Lung/Plasma Ratio in Rats): 133 | Kp ([1]; oral, Dose Day 7, read-out: Lung/Plasma Ratio in Rats): 92 | Kp ([1]; oral, Last dose + 24 hrs, read-out: Lung/Plasma Ratio in Rats): 107 | Kp ([1]; oral, Last dose, Day 10, read-out: Lung/Plasma Ratio in Rats): 79 | Kp ([1]; po, mean of the four study days, oral dosing, read-out: Lung/Plasma Ratio in Rats, Mean ± SEM): 103 | Lung/Plasma Ratio in Rats, Mean ± SEM ([1]; mean of the four study days, oral dosing): 100 | Lung/Plasma Ratio in Rats, Mean ± SEM ([1]; mean of the four study days, oral dosing, listed as NK): 103 ± 11.6 | Lung/Plasma Ratio in Rats, Mean ± SEM ([1]; mean of the four study days, oral dosing, listed as RS-norketotifen): ~100 | Lung Concentration [1, 8]: 23612 ng/g | Plasma Concentration [1, 8]: 178 ng/mL | Lung Concentration [1, 9]: 25355 ng/g | Plasma Concentration [1, 9]: 276 ng/mL | Lung Concentration [1, 10]: 890 ng/g | Plasma Concentration [1, 10]: 8.3 ng/mL | Lung Concentration [1, 11]: 18171 ng/g | Plasma Concentration [1, 11]: 229 ng/mL | Effect on PHA-induced release of IL-4 (%) (IL-4; 1 uM): 0.00% | Effect on PHA-induced release of IL-4 (%) (IL-4; 10 uM): 14.32% | Effect on PHA-induced release of IL-4 (%) (IL-4; 100 uM): 98.27^1% | MIC [2]: 2000 µg/mL (≈ 6770 µM) | Sedative side effects (sedation [3]): free from sedative side effects | Effect on PHA-induced release of IL-13 (%) (IL-13; 1 uM): 0.00% | Effect on PHA-induced release of IL-13 (%) (IL-13; 10 uM): 34.49^1% | Effect on PHA-induced release of IL-13 (%) (IL-13; 100 uM): 74.25^1% | MIC (Aspergillus fumigatus): 4000 µg/mL (≈ 13500 µM) | MIC (Streptococcus pneumoniae): 500 µg/mL (≈ 1690 µM) | MIC (Streptococcus pneumoniae; Streptococcus pneumoniae, read-out: MIC): 500 µg/mL (≈ 1690 µM) | Effect on PHA-induced release of TNF-α (%) (TNF-α; 1 uM): 45.57^2% | Effect on PHA-induced release of TNF-α (%) (TNF-α; 10 uM): 63.07^1% | Effect on PHA-induced release of TNF-α (%) (TNF-α; 100 uM): 95.68^1% | MIC (Trichophyton rubrum): 500 µg/mL (≈ 1690 µM) | MIC [4]: 250 µg/mL (≈ 846 µM) | Average ear thickness ([5]; 0 (predose) min after croton oil, vehicle 0.21 ± 0.02): 0.21 ± 0.02 | Average ear thickness ([5]; 90 min after croton oil, vehicle 0.29 ± 0.04): 0.24 ± 0.02 | Average ear thickness ([5]; 120 min after croton oil, vehicle 0.28 ± 0.02): 0.25 ± 0.02 | Anti-inflammatory effect compared with vehicle control group (conclusion in words) ([5]; single oral dose 10 mg/kg, croton oil ear swelling in mice): statistically significant anti-inflammatory effects | Effect on PHA-induced release of IL-10 (%) (IL-10; 1 uM): 12.71^2% | Effect on PHA-induced release of IL-10 (%) (IL-10; 10 uM): 24.80^2% | Effect on PHA-induced release of IL-10 (%) (IL-10; 100 uM): 90.40^1% | Effect on PHA-induced release of IL-8 (%) (IL-8; 1 uM): 10.29^2% | Effect on PHA-induced release of IL-8 (%) (IL-8; 10 uM): 34.36^1% | Effect on PHA-induced release of IL-8 (%) (IL-8; 100 uM): 78.29^1% | concentration at 5 days [6]: 4 ± 0.24 ng/mL | Water solubility (Water solubility): about 2% | solubility (Water solubility; water): ~20 mg/mL (≈ 67700 µM) | Sedative effects (sedation [7]): significant sedative effects | MIC (Staphylococcus aureus): 500 µg/mL (≈ 1690 µM)
